The results in this text go back to patent publication US7759486B2, “2,4,5-Trisubstituted pyrimidine compounds” (GlaxoSmithKline LLC, priority 2000, dated 2010).

As usually defined, the melting point is the temperature of the solid-liquid transition.

`Cc1cc(F)ccc1-c1nc(O)nc2c1ccc(=O)n2-c1ccccc1F` (hydrate or solvate) [Example 144, 2-Hydroxy-4-(4-fluoro-2-methylphenyl)-8-(2-fluorophenyl)-8H-pyrido[2,3-d]pyrimidin-7-one] registered a melting point of more than 280 °C.
In turn, `CSCCCOc1nc(-c2ccc(F)cc2C)c2ccc(=O)n(-c3c(F)cccc3F)c2n1` [Example 127, 8-(2,6-Difluorophenyl)-4-(4-fluoro-2-methylphenyl)-2-(3-methylsulfanylpropoxy)-8H-pyrido[2,3-d]pyrimidin-7-one] displayed a melting point of 127 to 128 °C.
Molecule `Cc1cc(F)ccc1-c1nc(OCCCS(C)(=O)=O)nc2c1ccc(=O)n2-c1c(F)cccc1F` [Example 128, 8-(2,6-Difluorophenyl)-4-(4-fluoro-2-methylphenyl)-2-(3-methanesulfonylpropoxy)-8H-pyrido[2,3-d]pyrimidin-7-one] yielded a melting point of 160 to 162 °C.
`Cc1cc(F)ccc1-c1nc(OCCNC(=O)OC(C)(C)C)nc2c1ccc(=O)n2-c1c(F)cccc1F` [Example 130, 8-(2,6-Difluorophenyl)-4-(4-fluoro-2-methylphenyl)-2-[2-(tert-butoxycarbonylamino)ethoxy]-8H-pyrido[2,3-d]pyrimidin-7-one] yielded a melting point of 103 to 105 °C.
The figure for `Cc1cc(F)ccc1-c1nc(OCCN)nc2c1ccc(=O)n2-c1c(F)cccc1F` [Example 131, 8-(2,6-Difluorophenyl)-4-(4-fluoro-2-methylphenyl)-2-(2-aminoethoxy)-8H-pyrido[2,3-d]pyrimidin-7-one] is 96 to 99 °C; for `CC(=O)NCCOc1nc(-c2ccc(F)cc2C)c2ccc(=O)n(-c3c(F)cccc3F)c2n1` [Example 132, 8-(2,6-Difluorophenyl)-4-(4-fluoro-2-methylphenyl)-2-(2-acetylaminoethoxy)-8H-pyrido[2,3-d]pyrimidin-7-one] it is 75 to 79 °C.
The figure for `Cc1cc(F)ccc1-c1nc(OCC(CO)CO)nc2c1ccc(=O)n2-c1c(F)cccc1F` [Example 133, 8-(2,6-Difluorophenyl)-4-(4-fluoro-2-methylphenyl)-2-(3-hydroxy-2-hydroxymethylpropoxy)-8H-pyrido[2,3-d]pyrimidin-7-one] is 77 to 81 °C; for `Cc1cc(F)ccc1-c1nc(OCCNS(C)(=O)=O)nc2c1ccc(=O)n2-c1c(F)cccc1F` [Example 134, 8-(2,6-Difluorophenyl)-4-(4-fluoro-2-methylphenyl)-2-(2-methanesulfonyl-aminoethoxy)-8H-pyrido[2,3-d]pyrimidin-7-one] it is 95 to 99 °C; for `Cc1cc(F)ccc1-c1nc(OCCN(C)S(C)(=O)=O)nc2c1ccc(=O)n2-c1c(F)cccc1F` [Example 135, 8-(2,6-Difluorophenyl)-4-(4-fluoro-2-methylphenyl)-2-(2-N-methanesulfonyl-N-methylaminoethoxy)-8H-pyrido[2,3-d]pyrimidin-7-one] it is 89 to 92 °C.
In the case of `Cc1cc(F)ccc1-c1nc(NCCO)nc2c1ccc(=O)n2-c1ccccc1F` [Example 136, 4-(4-fluoro-2-methylphenyl)-8-(2-fluorophenyl)-2-(2-hydroxylethylamino)-5H-pyrido[2,3-d]pyrimidin-7-one] it was 120 to 124 °C; in that of `Cc1cc(F)ccc1-c1nc(N[C@@H](C)CO)nc2c1ccc(=O)n2-c1c(F)cccc1F` [Example 137, (S)-4-(4-fluoro-2-methylphenyl)-8-(2,6-difluorophenyl)-2-[(1-hydroxyprop-2-yl)amino]-8H-pyrido[2,3-d]pyrimidin-7-one], 96 to 101 °C; in that of `Cc1cc(F)ccc1-c1nc(N[C@H](C)CO)nc2c1ccc(=O)n2-c1c(F)cccc1F` [Example 138, (R)-4-(4-fluoro-2-methylphenyl)-8-(2,6-difluorophenyl)-2-[(1-hydroxyprop-2-yl)amino]-8H-pyrido[2,3-d]pyrimidin-7-one], 90 to 95 °C.
The molecule `Cc1cc(F)ccc1-c1nc(NC(C)(C)CO)nc2c1ccc(=O)n2-c1c(F)cccc1F` [Example 139, 4-(4-fluoro-2-methylphenyl)-8-(2,6-difluorophenyl)-2-(1,1-dimethyl-2-hydroxyethylamino)-8H-pyrido[2,3-d]pyrimidin-7-one] had a melting point of 99 to 105 °C.
In the case of `CCNc1nc(-c2ccc(F)cc2C)c2ccc(=O)n(-c3ccccc3F)c2n1` [Example 140, 2-Ethylamino-4-(4-fluoro-2-methylphenyl)-8-(2-fluorophenyl)-8H-pyrido[2,3-d]pyrimidin-7-one], the melting point fell in the range of 176 to 177 °C.
The figure for `Cc1cc(F)ccc1-c1nc(N[C@@H](C)CO)nc2c1ccc(=O)n2-c1ccccc1F` [Example 141, (S)-4-(4-fluoro-2-methylphenyl)-8-(2-fluorophenyl)-2-[(1-hydroxyprop-2-yl)amino]-8H-pyrido[2,3-d]pyrimidin-7-one] is 114 to 120 °C; for `Cc1cc(F)ccc1-c1nc(N[C@H](C)CO)nc2c1ccc(=O)n2-c1ccccc1F` [Example 142, (R)-4-(4-fluoro-2-methylphenyl)-8-(2-fluorophenyl)-2-[(1-hydroxyprop-2-yl)amino]-8H-pyrido[2,3-d]pyrimidin-7-one] it is 116 to 122 °C; for `Cc1cc(F)ccc1-c1nc(NC(C)(C)CO)nc2c1ccc(=O)n2-c1ccccc1F` [Example 143, 2-(1,1-dimethyl-2-hydroxyethylamino)-4-(4-fluoro-2-methylphenyl)-8-(2 fluorophenyl)-8H-pyrido[2,3-d]pyrimidin-7-one] it is 106 to 112 °C.
Molecule `Cc1cc(F)ccc1-c1nc(NC2CCCCC2)nc2c1ccc(=O)n2-c1ccccc1F` [Example 145, 2-Cyclohexylamino-4-(4-fluoro-2-methylphenyl)-8-(2-fluorophenyl)-5H-pyrido[2,3-d]pyrimidin-7-one] registered a melting point of 181 to 182 °C.
Consider `Cc1cc(F)ccc1-c1nc(NC2CCOCC2)nc2c1ccc(=O)n2-c1ccccc1F` [Example 146, 2-(Tetrahydropyran-4-ylamino)-4-(4-fluoro-2-methylphenyl)-8-(2-fluorophenyl)-8H-pyrido[2,3-d]pyrimidin-7-one], for which the melting point lay in the range of 211 to 212 °C.
In the case of `CCNc1nc(-c2ccc(F)cc2C)c2ccc(=O)n(-c3c(F)cccc3F)c2n1` [Example 147, 2-Ethylamino-4-(4-fluoro-2-methylphenyl)-8-(2,6-difluorophenyl)-8H-pyrido[2,3-d]pyrimidin-7-one] it was 195 to 196 °C.
In the case of `Cc1cc(F)ccc1-c1nc(NC2CCCCC2)nc2c1ccc(=O)n2-c1c(F)cccc1F` [Example 148, 2-Cyclohexylamino-4-(4-fluoro-2-methylphenyl)-8-(2,6-difluorophenyl)-8H-pyrido[2,3-d]pyrimidin-7-one], the melting point was in the range of 218 to 219 °C.
The figure for `Cc1cc(F)ccc1-c1nc(NC2CCOCC2)nc2c1ccc(=O)n2-c1c(F)cccc1F` [Example 149, 2-(Tetrahydropyran-4-ylamino)-4-(4-fluoro-2-methylphenyl)-8-(2,6-difluorophenyl)-8H-pyrido[2,3-d]pyrimidin-7-one] is 231 to 232 °C.
As for `Cc1cc(F)ccc1-c1nc(NCC(F)(F)F)nc2c1ccc(=O)n2-c1ccccc1F` [Example 150, 2-(2,2,2-Trifluoroethylamino)-4-(4-fluoro-2-methylphenyl)-8-(2-fluorophenyl)-8H-pyrido[2,3-d]pyrimidin-7-one], the melting point fell in the range of 187 to 188 °C.
The figure for `Cc1cc(F)ccc1-c1nc(N[C@H]2CC[C@H](O)CC2)nc2c1ccc(=O)n2-c1ccccc1F` [Example 151, trans-2-(4-Hydroxycyclohexylamino)-4-(4-fluoro-2-methylphenyl)-8-(2-fluorophenyl)-8H-pyrido[2,3-d]pyrimidin-7-one] is 148 to 151 °C; for `Cc1cc(F)ccc1-c1nc(NC(C)(CO)CO)nc2c1ccc(=O)n2-c1ccccc1F` [Example 152, 2-(1-hydroxymethyl-1-methyl-2-hydroxyethylamino)-4-(4-fluoro-2-methylphenyl)-8-(2-fluorophenyl)-8H-pyrido[2,3-d]pyrimidin-7-one] it is 160 to 162 °C.
In the case of `Cc1cc(F)ccc1-c1nc(NCC(F)(F)F)nc2c1ccc(=O)n2-c1c(F)cccc1F` [Example 153, 2-(2,2,2-Trifluoroethylamino)-4-(4-fluoro-2-methylphenyl)-8-(2,6-difluorophenyl)-8H-pyrido[2,3-d]pyrimidin-7-one] it was 195 to 196 °C.
For the molecule `Cc1cc(F)ccc1-c1nc(NC(C)(CO)CO)nc2c1ccc(=O)n2-c1c(F)cccc1F` [Example 154, 2-(1-hydroxymethyl-1-methyl-2-hydroxyethylamino)-4-(4-fluoro-2-methylphenyl)-8-(2,6-difluorophenyl)-8H-pyrido[2,3-d]pyrimidin-7-one], the melting point is 158 to 160 °C.
In the case of `Cc1cc(F)ccc1-c1nc(N[C@H]2CC[C@H](O)CC2)nc2c1ccc(=O)n2-c1c(F)cccc1F` [Example 155, trans-2-(4-Hydroxycyclohexylamino)-4-(4-fluoro-2-methylphenyl)-8-(2,6-difluorophenyl)-8H-pyrido[2,3-d]pyrimidin-7-one] it was 158 to 160 °C; in that of `CCOc1nc(-c2ccc(F)cc2C)c2ccc(=O)n(-c3ccccc3F)c2n1` [Example 156, 2-Ethoxy-4-(4-fluoro-2-methylphenyl)-8-(2-fluorophenyl)-8H-pyrido[2,3-d]pyrimidin-7-one], 137 to 139 °C; in that of `CCNC(=O)NCCNc1nc(-c2ccc(F)cc2C)c2ccc(=O)n(-c3c(F)cccc3F)c2n1` [Example 158, 1-[2-[8-(2,6-Difluorophenyl)-4-(4-fluoro-2-methylphenyl)-7-oxo-7,8-dihydro-pyrido[2,3-d]pyrimidin-2-ylamino]ethyl]-3-ethylurea], 130 to 133 °C.
`Cc1cc(F)ccc1-c1nc(NCCNC(=O)Nc2ccccc2)nc2c1ccc(=O)n2-c1c(F)cccc1F` [Example 159]: the melting point fell in the range of 142 to 148 °C.
The figure for `Cc1cc(F)ccc1-c1nc(NCCNC(=O)NC2CCCCC2)nc2c1ccc(=O)n2-c1c(F)cccc1F` [Example 160, 1-[2-[8-(2,6-Difluorophenyl)-4-(4-fluoro-2-methylphenyl)-7-oxo-7,8-dihydro-pyrido[2,3-d]pyrimidin-2-ylamino]ethyl]-3-cyclohexylurea] is 178 to 183 °C.
